# Patent US12466841B2, “Substituted pyrrolo[3,4-c]pyridines as HPK1 antagonists” (Nimbus Saturn, Inc., priority 2021, dated 2025)
# Molecular target: HPK1 (Homo sapiens (Human), UniProt Q92918)
# Experiment: HPK1 biochemical enzyme assay (microfluidic mobility shift)
# Details: 1.5 nM HPK1, ATP 1 mM final, 60 min at RT, Caliper EZ Reader; read-out: HPK1 1000UMATP caliper IC50
# Description: HPK1 biochemical enzyme assay: HPK1 enzyme inhibition was measured using a microfluidic mobility shift assay. Reactions were performed in a 384-well plate, containing 1.5 nM HPK1 (Invitrogen), in assay buffer (Cana Biosciences; pH 7.4). Test compounds were titrated in ten point curves (top final assay concentration 3 μM), and preincubated with enzyme/substrate mix for 30 min prior to initiation of the reaction by addition of ATP (1 mM final concentration) and substrate (1 μM final concentration; Carna Biosciences) diluted in assay buffer supplemented by MgCl2 (final assay concentration of 5 mM). Following 60 min incubation at RT, the reaction was terminated by addition of 60 μl/well termination buffer (Carna Biosciences) and signal determination using a Caliper EZ Reader (Perkin Elmer, UK).
# Compounds having an activity designated as “A” provided an IC50≤100 nM; compounds having an activity designated as “B” provided an IC50>100 nM.
# HPK1, sequence (Q92918 whole entry): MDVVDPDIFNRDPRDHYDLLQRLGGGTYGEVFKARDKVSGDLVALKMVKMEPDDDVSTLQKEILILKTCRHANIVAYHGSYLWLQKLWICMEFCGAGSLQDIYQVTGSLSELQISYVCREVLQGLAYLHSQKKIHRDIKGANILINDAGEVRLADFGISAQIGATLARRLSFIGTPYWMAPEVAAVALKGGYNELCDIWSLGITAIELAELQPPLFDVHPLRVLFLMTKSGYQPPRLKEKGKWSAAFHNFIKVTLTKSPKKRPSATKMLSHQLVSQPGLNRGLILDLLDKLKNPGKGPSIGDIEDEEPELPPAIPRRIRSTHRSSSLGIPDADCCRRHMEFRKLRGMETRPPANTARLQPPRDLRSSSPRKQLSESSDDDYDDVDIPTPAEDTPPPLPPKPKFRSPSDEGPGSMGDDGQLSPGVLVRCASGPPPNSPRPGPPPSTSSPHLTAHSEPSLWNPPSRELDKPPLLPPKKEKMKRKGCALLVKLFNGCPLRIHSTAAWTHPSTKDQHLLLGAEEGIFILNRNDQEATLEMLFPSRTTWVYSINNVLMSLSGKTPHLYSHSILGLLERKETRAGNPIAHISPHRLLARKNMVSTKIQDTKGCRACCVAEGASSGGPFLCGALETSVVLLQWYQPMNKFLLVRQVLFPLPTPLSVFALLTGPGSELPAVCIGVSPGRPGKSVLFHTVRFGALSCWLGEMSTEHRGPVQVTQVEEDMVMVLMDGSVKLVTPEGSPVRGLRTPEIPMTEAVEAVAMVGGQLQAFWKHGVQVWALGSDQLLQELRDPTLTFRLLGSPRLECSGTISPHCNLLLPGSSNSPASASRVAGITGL
row,Compound,IC50 [nM]
1,"4-((3-((dimethylamino)methyl)-4-(4-hydroxypiperidin-1-yl)phenyl)amino)-7-(1-methyl-1H-pyrrolo[2,3-b]pyridin-4-yl)-1,2-dihydro-3H-pyrrolo[3,4-c]pyridin-3-one [Compound I-21]",> 100
2,"CN(C)C[C@@H]1CN(c2ccc(Nc3ncc(-c4ccnc5c4ccn5C)c4c3C(=O)NC4)cc2)CCO1 (single isomer, unassigned) [Compound I-17]",≤ 100
3,"CN(C)C[C@H]1CN(c2ccc(Nc3ncc(-c4ccnc5c4ccn5C)c4c3C(=O)NC4)cc2)CCO1 (single isomer, unassigned) [Compound I-18]",≤ 100
4,"Cn1ccc2c(-c3cnc(Nc4ccc(N5CCC(O)CC5)nc4)c4c3CNC4=O)ccnc21 [Compound I-1, 4-((6-(4-hydroxypiperidin-1-yl)pyridin-3-yl)amino)-7-(1-methyl-1H-pyrrolo[2,3-b]pyridin-4-yl)-1,2-dihydro-3H-pyrrolo[3,4-c]pyridin-3-one]",> 100
5,"CN(C)Cc1cc(Nc2ncc(-c3ccnc4c3ccn4C)c3c2C(=O)NC3)ccc1N1CCOCC1 [Compound I-7, 4-((3-((dimethylamino)methyl)-4-morpholinophenyl)amino)-7-(1-methyl-1H-pyrrolo[2,3-b]pyridin-4-yl)-1,2-dihydro-3H-pyrrolo[3,4-c]pyridin-3-one]",≤ 100
6,"Cn1ccc2c(-c3cnc(Nc4ccc(N5CCC(O)CC5)cn4)c4c3CNC4=O)ccnc21 [Compound I-10, 4-((5-(4-hydroxypiperidin-1-yl)pyridin-2-yl)amino)-7-(1-methyl-1H-pyrrolo[2,3-b]pyridin-4-yl)-1,2-dihydro-3H-pyrrolo[3,4-c]pyridin-3-one]",> 100
7,"Cn1ccc2c(-c3cnc(Nc4ccc(N5CCC[C@H](C(C)(C)O)C5)cc4)c4c3CNC4=O)ccnc21 [Compound I-11, (S)-4-((4-(3-(2-hydroxypropan-2-yl)piperidin-1-yl)phenyl)amino)-7-(1-methyl-1H-pyrrolo[2,3-b]pyridin-4-yl)-1,2-dihydro-3H-pyrrolo[3,4-c]pyridin-3-one]",≤ 100
8,"Cn1ccc2c(-c3cnc(Nc4ccc(N5CCC[C@@H](C(C)(C)O)C5)cc4)c4c3CNC4=O)ccnc21 [Compound I-12, (R)-4-((4-(3-(2-hydroxypropan-2-yl)piperidin-1-yl)phenyl)amino)-7-(1-methyl-1H-pyrrolo[2,3-b]pyridin-4-yl)-1,2-dihydro-3H-pyrrolo[3,4-c]pyridin-3-one]",≤ 100
9,"Cc1ccc2c(-c3cnc(Nc4ccc(N5CCC(O)CC5)cc4)c4c3CNC4=O)cnn2c1 [Compound I-13, 4-((4-(4-hydroxypiperidin-1-yl)phenyl)amino)-7-(6-methylpyrazolo[1,5-a]pyridin-3-yl)-1,2-dihydro-3H-pyrrolo[3,4-c]pyridin-3-one]",≤ 100
10,"O=C1NCc2c(-c3cnc4cc(F)ccn34)cnc(Nc3ccc(N4CCC(O)CC4)cc3)c21 [Compound I-14, 7-(7-fluoroimidazo[1,2-a]pyridin-3-yl)-4-((4-(4-hydroxypiperidin-1-yl)phenyl)amino)-1,2-dihydro-3H-pyrrolo[3,4-c]pyridin-3-one]",> 100
11,"CN1CCN(c2ccc(Nc3ncc(-c4cnc5cc(F)ccn45)c4c3C(=O)NC4)cc2)CC1 [Compound I-15, 7-(7-fluoroimidazo[1,2-a]pyridin-3-yl)-4-((4-(4-methylpiperazin-1-yl)phenyl)amino)-1,2-dihydro-3H-pyrrolo[3,4-c]pyridin-3-one]",> 100
12,"CN(C)Cc1cc(Nc2ncc(-c3cnc4cc(F)ccn34)c3c2C(=O)NC3)ccc1[C@H]1CCOC1 [Compound I-19, (R)-4-((3-((dimethylamino)methyl)-4-(tetrahydrofuran-3-yl)phenyl)amino)-7-(7-fluoroimidazo[1,2-a]pyridin-3-yl)-1,2-dihydro-3H-pyrrolo[3,4-c]pyridin-3-one]",≤ 100
13,"CN(C)Cc1cc(Nc2ncc(-c3cnc4cc(F)ccn34)c3c2C(=O)NC3)ccc1[C@@H]1CCOC1 [Compound I-20, (S)-4-((3-((dimethylamino)methyl)-4-(tetrahydrofuran-3-yl)phenyl)amino)-7-(7-fluoroimidazo[1,2-a]pyridin-3-yl)-1,2-dihydro-3H-pyrrolo[3,4-c]pyridin-3-one]",> 100
14,"COCC1(O)CCN(c2ccc(Nc3ncc(-c4cnc5cc(F)ccn45)c4c3C(=O)NC4)cc2CN(C)C)CC1 [Compound I-22, 4-((3-((dimethylamino)methyl)-4-(4-hydroxy-4-(methoxymethyl)piperidin-1-yl)phenyl)amino)-7-(7-fluoroimidazo[1,2-a]pyridin-3-yl)-1,2-dihydro-3H-pyrrolo[3,4-c]pyridin-3-one]",> 100
15,"Cn1cncc1-c1cnc(Nc2ccc(N3CCNCC3)cc2)c2c1CNC2=O [Compound I-26, 7-(1-methyl-1H-imidazol-5-yl)-4-((4-(piperazin-1-yl)phenyl)amino)-1,2-dihydro-3H-pyrrolo[3,4-c]pyridin-3-one]",> 100
16,"CC(C)(O)[C@H]1CN(c2ccc(Nc3ncc(-c4ccncc4)c4c3C(=O)NC4)cc2)CCO1 [Compound I-28, (R)-4-((4-(2-(2-hydroxypropan-2-yl)morpholino)phenyl)amino)-7-(pyridin-4-yl)-1,2-dihydro-3H-pyrrolo[3,4-c]pyridin-3-one]",> 100

# More lines, now with the values ahead:
row,IC50 [nM],Compound
1,> 100,"CC(C)(O)[C@@H]1CCCN(c2ccc(Nc3ncc(-c4cnc5cc(F)ccn45)c4c3C(=O)NC4)cc2)C1 (single isomer, unassigned) [Compound I-4]"
2,> 100,"CN1CCN(c2ccc(Nc3ncc(-c4ccncc4)c4c3C(=O)NC4)cc2)CC1 [Compound I-5, 4-((4-(4-methylpiperazin-1-yl)phenyl)amino)-7-(pyridin-4-yl)-1,2-dihydro-3H-pyrrolo[3,4-c]pyridin-3-one]"
3,≤ 100,"CN(C)Cc1cc(Nc2ncc(-c3cnc4cc(F)ccn34)c3c2C(=O)NC3)ccc1C1CCOCC1 [Compound I-6, 4-((3-((dimethylamino)methyl)-4-(tetrahydro-2H-pyran-4-yl)phenyl)amino)-7-(7-fluoroimidazo[1,2-a]pyridin-3-yl)-1,2-dihydro-3H-pyrrolo[3,4-c]pyridin-3-one]"
4,≤ 100,"Cn1ccc2c(-c3cnc(Nc4ccc(N5CCC(O)CC5)cc4)c4c3CNC4=O)ccnc21 [Compound I-8, 4-((4-(4-hydroxypiperidin-1-yl)phenyl)amino)-7-(1-methyl-1H-pyrrolo[2,3-b]pyridin-4-yl)-1,2-dihydro-3H-pyrrolo[3,4-c]pyridin-3-one]"
5,> 100,"Cn1ccc2c(-c3cnc(Nc4ccc(S(C)(=O)=O)cc4)c4c3CNC4=O)ccnc21 [Compound I-9, 7-(1-methyl-1H-pyrrolo[2,3-b]pyridin-4-yl)-4-((4-(methylsulfonyl)phenyl)amino)-1,2-dihydro-3H-pyrrolo[3,4-c]pyridin-3-one]"
6,≤ 100,"CC(C)(O)C1CN(c2ccc(Nc3ncc(-c4cnc5cc(F)ccn45)c4c3C(=O)NC4)cc2)CCO1 (centres unmarked) [Compound I-16, 7-(7-fluoroimidazo[1,2-a]pyridin-3-yl)-4-((4-(2-(2-hydroxypropan-2-yl)morpholino)phenyl)amino)-1,2-dihydro-3H-pyrrolo[3,4-c]pyridin-3-one]"
7,> 100,"CNC1CCN(c2ccc(Nc3ncc(-c4ccncc4)c4c3C(=O)NC4)cc2)CC1 [Compound I-23, 4-((4-(4-(methylamino)piperidin-1-yl)phenyl)amino)-7-(pyridin-4-yl)-1,2-dihydro-3H-pyrrolo[3,4-c]pyridin-3-one]"
8,≤ 100,"Cn1cncc1-c1cnc(Nc2ccc(N3CCC[C@H](C(C)(C)O)C3)cc2)c2c1CNC2=O [Compound I-24, (S)-4-((4-(3-(2-hydroxypropan-2-yl)piperidin-1-yl)phenyl)amino)-7-(1-methyl-1H-imidazol-5-yl)-1,2-dihydro-3H-pyrrolo[3,4-c]pyridin-3-one]"
9,> 100,"Cn1cncc1-c1cnc(Nc2ccc(N3CCC[C@@H](C(C)(C)O)C3)cc2)c2c1CNC2=O [Compound I-25, (R)-4-((4-(3-(2-hydroxypropan-2-yl)piperidin-1-yl)phenyl)amino)-7-(1-methyl-1H-imidazol-5-yl)-1,2-dihydro-3H-pyrrolo[3,4-c]pyridin-3-one]"
10,> 100,"CC(C)(O)C1CN(c2ccc(Nc3ncc(-c4ccncc4)c4c3C(=O)NC4)cc2)CCO1 (centres unmarked) [Compound I-27, 4-((4-(2-(2-hydroxypropan-2-yl)morpholino)phenyl)amino)-7-(pyridin-4-yl)-1,2-dihydro-3H-pyrrolo[3,4-c]pyridin-3-one]"
